Consider 2 sequences from article PMC11107383, “Integrating Reinforcement Learning and Monte Carlo Tree Search for enhanced neoantigen vaccine design” (Briefings in Bioinformatics, 2024).

The target in assay [1] is T1, HLA-A^*11:01 (Homo sapiens, UniProt P04439, A114D/D185E/E176A/F33Y/L180Q/S129P/T187R). Nature of the assay: Peptide competitive binding assay (FITC-labeled reference peptide KVFPKALINK, flow cytometry) in HMy2.CIR cells expressing HLA-A^*11:01. The following applies: 24 h, 4°C; for shift in the fluorescence (flow cytometry): FITC-labeled reference peptide displaced; for 5 μM Inhibition (%): competitor 5 μM.

The subject of a further assay is T-cell responses. The settings on record: IFN-γ ELISPOT; HLA-A^*11:01 pair; cited from earlier work. From the text:
(§1) A peptide sequence, ELQRREVYK, originating from the E6 oncoprotein of HPV type 52, has been recognized as an HLA-A^*11:01-restricted peptide through an in vitro peptide-binding assay. […] Considering the high prevalence of HLA-A^*11:01 allele (21.143%) in the Chinese pop ...

The target of assay [2] is T1, HLA-A^*11:01. The following applies: in vitro peptide-binding assay; cited from earlier work.
Excerpt: as §1

Where [3] appears, read: FITC-labeled reference peptide KVFPKALINK 300 nM, flow cytometry.

“Also recorded” adds a separate entry of the source. Ends that are not written are not given here.

Consider ALQRREVYK [ALQRREVYK], for which the “shift in the fluorescence (flow cytometry)” value on HLA-A^*11:01 [1] is “leftward shift in the fluorescence intensity”; on HLA-A^*11:01 [1] (listed as mutated peptide), “leftward shift in the fluorescence peak”. Further, the half-maximal inhibitory concentration (IC50) on HLA-A^*11:01 [1] (bracketed from 5 and 15 μM inhibition) is 5 to 15 µM. Moreover, the “5 μM Inhibition (%)” value on HLA-A^*11:01 [1] (setting [3]) is 44.83%. The “15 μM Inhibition (%)” value at HLA-A^*11:01 [1] (competitor 15 μM, FITC-labeled reference peptide KVFPKALINK 300 nM, flow cytometry) is given as 77.55%.
“ELQRREVYK [peptide originating from the E6 oncoprotein of HPV type 52]”: the “shift in the fluorescence (flow cytometry)” value in the assay with HLA-A^*11:01 [1] is “does not exhibit a discernible shift; also recorded: no discernible shift”. In addition, the “5 μM Inhibition (%)” value in the assay with HLA-A^*11:01 [1] (setting [3]) was 24.21%. Besides, in the assay on T-cell responses, the T-cell response entry is “does not elicit positive T-cell responses”. For the same sequence, in the assay with HLA-A^*11:01 [2], the HLA restriction entry was “HLA-A^*11:01-restricted”.
